The record followed here is ChEMBL document CHEMBL1134206 (Bioorg Med Chem Lett, 2001).

The structures appear in SMILES notation.

Assay [1] has as its target T1, 5-hydroxytryptamine receptor 1A (Rattus norvegicus) (UniProt P19327).
T1 sequence (whole entry): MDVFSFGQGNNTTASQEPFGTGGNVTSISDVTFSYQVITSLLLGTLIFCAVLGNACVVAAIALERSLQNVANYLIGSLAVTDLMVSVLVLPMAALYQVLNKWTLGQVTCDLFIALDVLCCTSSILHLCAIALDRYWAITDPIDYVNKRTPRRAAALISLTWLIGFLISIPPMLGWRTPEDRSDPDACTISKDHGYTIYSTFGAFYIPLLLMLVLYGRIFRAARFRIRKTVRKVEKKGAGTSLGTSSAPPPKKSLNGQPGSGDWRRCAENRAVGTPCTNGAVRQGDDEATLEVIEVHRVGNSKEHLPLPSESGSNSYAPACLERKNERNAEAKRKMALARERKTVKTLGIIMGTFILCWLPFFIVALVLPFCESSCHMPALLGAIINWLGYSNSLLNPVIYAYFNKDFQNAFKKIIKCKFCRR
Nature of the assay: Ratio of binding affinity to 5-HT 1A and D2 receptor.

Assay [2] addresses T2, 5-hydroxytryptamine receptor 1A (Rattus norvegicus, UniProt P19327).
T2 sequence (P19327 whole entry): T1 sequence (whole entry)
Nature of the assay: Binding affinity to 5-hydroxytryptamine 1A receptor of rat hippocampus with [3H]8-OH-DPAT as radioligand. The class given is tissue-based.

The next assay concerns the target D(2) dopamine receptor (Rattus norvegicus, UniProt P61169). Nature of the assay: Binding affinity to Dopamine receptor D2 in of rat striatum membrane with [3H]- raclopride as radioligand. The assay is classed as cell membranes.
The species entered for the next assay is Rattus norvegicus. The experiment in a line: Neuronal protective effect of compound against ischemic brain damage in rat t-MCAO model. The assay is classed as functional.

Sequence of D(2) dopamine receptor (P61169 whole entry): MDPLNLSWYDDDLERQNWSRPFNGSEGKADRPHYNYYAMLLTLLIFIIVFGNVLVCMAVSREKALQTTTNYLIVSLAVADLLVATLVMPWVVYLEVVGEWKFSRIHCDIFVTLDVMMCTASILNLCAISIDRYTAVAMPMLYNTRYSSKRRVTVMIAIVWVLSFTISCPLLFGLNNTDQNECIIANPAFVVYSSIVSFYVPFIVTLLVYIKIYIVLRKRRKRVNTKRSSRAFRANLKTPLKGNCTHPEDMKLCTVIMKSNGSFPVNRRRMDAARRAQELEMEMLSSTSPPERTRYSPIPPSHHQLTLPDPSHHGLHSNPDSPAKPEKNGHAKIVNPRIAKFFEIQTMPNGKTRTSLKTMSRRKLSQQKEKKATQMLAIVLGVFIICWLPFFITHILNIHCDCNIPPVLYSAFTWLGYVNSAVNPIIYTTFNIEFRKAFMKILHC

In the case of `O=C1c2ccccc2OC=C(Cl)N1CCCCN1CCN(c2ncccn2)CC1`, in assay [1], the Ratio came out at 125. In addition, the IC50 in assay [2] stood at 1.59 nM; on D(2) dopamine receptor, 199 nM.

Turning to `O=C1c2ccccc2OC=CN1CCCCN1CCN(c2ncccn2)CC1`, in assay [2], the IC50 stood at 18 nM.

For `CC1=COc2ccccc2C(=O)N1CCCCN1CCN(c2ncccn2)CC1`, the Ratio in assay [1] was determined as 108. In addition, the IC50 was 10.2 nM in assay [2] and 1100 nM on D(2) dopamine receptor.

Regarding `Cc1c(N(C)C)c(=O)n(-c2ccccc2)n1C` [AMINOPYRINE], in the assay listed under Rattus norvegicus, the Inhibition was determined as 21%.

Take `O=C1c2ccccc2OC=C(Cl)N1CCCCN1CC=C(c2ccccn2)CC1` [PICLOZOTAN]: the Inhibition in the assay filed under Rattus norvegicus is 63%. Also, in assay [1], the Ratio was determined as 179. This compound also gave an IC50 at D(2) dopamine receptor of 84 nM.

In the case of `O=C1c2ccccc2OC=C(Cl)N1CCCCN1CCN(c2ccccn2)CC1`, the Ratio in assay [1] stood at 66.

Usually IC50 stands for the concentration that gives 50% inhibition. A lower IC50 goes with greater potency. By Inhibition is commonly meant the share of the control response that was lost under treatment. High values mean a strong effect, low ones a weak effect.
